Data on twelve compounds can be found in US20230330254A1 (Regeneron Pharmaceuticals, Inc., priority 2022, published 2023).

Where a SMILES comes first, the peptide text is derived from it. [ ]: non-standard residue; d: D form. The star is where a group is joined. Bip(2'-Et,4'-O(CH2)4NH2) = CCc1cc(OCCCCN)ccc1-c1ccc(C[C@H](N)C(=O)O)cc1; Nva(5-(3,5-Me2Ph)) = Cc1cc(C)cc(CCC[C@H](N)C(=O)O)c1; Ala(1H-tetrazol-5-yl) = N[C@@H](Cc1nnn[nH]1)C(=O)O; αMePhe(2-F) = C[C@](N)(Cc1ccccc1F)C(=O)O; X9 = O=C([C@@H]1CCN(CCc2cnc[nH]2)C1)*; X8 = O=C([C@H]1CCN(CCc2cnc[nH]2)C1)*

For assay [1], the target named is T1, human GLP1R (Homo sapiens, UniProt P43220). The assay can be described thus: Human GLP1R cAMP accumulation assay. The assay is classed as cell-based. Details: HEK293 cells over-expressing full length human GLP-1R were utilized; expressed in transfected cells; host or cells: HEK293 (HEK293/hGLP1R). As to the method:
8.1 Human GLP1R cAMP Accumulation Assay (Cyclic AMP Determination)
The functional activity of the test compounds for agonizing GLP1R were evaluated using a cell-based assay. For the assay, HEK293 cells over-expressing full length human GLP-1R were utilized and the downstream cAMP accumulation was assessed as a measure of human GLP-1R stimulation. […] Diluted compounds were transferred to OptiPlates (100 nL/well) using an Echo liquid handler. HEK293/hGLP1R cells were thawed in 37° C. water-bath, washed 2 times with HBSS and re-suspended in assay buffer (HBSS+5 mM HEPES+500 μM IBMX+0.1% BSA). […] After centrifugation, the assay plate was incubated at 23° C. for 30 min. The reaction was terminated by adding 10 μL of lysis buffer containing D2-cAMP and a cAMP-antibody from the cyclic AMP immunoassay kit (Cisbio, Cat #62AM4PEJ). […] The levels of cAMP per well were calculated using a standard curve generated by GraphPad Prism. Percent activity was calculated according to the formula (% Activity=100%*(cAMP level-LC)/(HC-LC)). EC50 values were fitted from a four-parameter logistic equation over a 10-point response curve (GraphPad Prism).

In assay [2] the target is T1, human GLP1R. The assay can be described thus: Luciferase reporter assay, HEK293/CRE-Luc/hGLP1R (Example 17). On the set-up: engineered to express full-length human GLP1R, cynomolgus GLP1R; expressed in transfected cells; host or cells: HEK293/CRE-Luc. It counts as cell-based. The settings on record: HEK293/CRE-Luc/hGLP1R; for S/N: highest RLU / RLU of untreated wells; for Relative Potency (% M2361 EC50) / Relative Signal:Noise (% M2361): relative to M2361 of the same experiment; for EC50: payloads and linker-payloads, experiments A-E, M2361 repeated in each, read-out: EC50. An excerpt:
(§1) To test the activity of GLP1R agonist payloads, GLP1R agonist linker-payloads (LPs), and anti-GLP1R antibody tethered drug conjugates (ATDCs) of the invention, a cell-based cAMP responsive luciferase reporter assay was developed. To generate the assay cell line, the firefly luciferase gene was placed under the control of a cAMP response element (CRE) located upstream of a minimal promoter and transfected into HEK293 cells and referred to herein as HEK293/CRE-Luc cells.
(§2) Three-fold serial dilutions of free payloads or LPs were prepared in 100% DMSO, transferred to fresh assay media, and added to the cells at a final constant DMSO concentration of 0.2%. The last well in the plate served as a blank control containing only the assay media and 0.2% DMSO (untreated well) and was plotted as a continuation of the 3-fold serial dilution. Four to six hours later, luciferase activity was determined after the addition of One-Glo™ reagent (Promega, Cat #E6130) to each well. Relative light units (RLUs) were measured on an Envision luminometer (PerkinElmer) and EC50 values were determined using a four-parameter logistic equation over a 12-point dose response curve (GraphPad Prism). The signal to noise (S/N) was determined by taking the ratio of the highest RLU on the dose response curve to the RLU in the untreated wells. Data was generated across several experiments (A-E) with M2361 serving as a reference standard in each experiment to calculate the payload relative potency ((M2361 EC50/payload EC50)*100)) and relative S/N ((payload SN/M2361 SN)*100)).

For assay [3], the system named is HEK293/CRE-Luc cells. Nature of the assay: Luciferase reporter assay, HEK293/CRE-Luc cells without GLP1R (Example 17). The settings on record: HEK293/CRE-Luc cells without hGLP1R, payloads and linker-payloads; for EC50: read-out: EC50. The assay is classed as cell-based, human.
From the text: as §1, §2

The mark [4] stands for this setting: HEK293/hGLP1R cells, Table 4, read-out: cAMP EC50.

T1 sequence (P43220 24-463): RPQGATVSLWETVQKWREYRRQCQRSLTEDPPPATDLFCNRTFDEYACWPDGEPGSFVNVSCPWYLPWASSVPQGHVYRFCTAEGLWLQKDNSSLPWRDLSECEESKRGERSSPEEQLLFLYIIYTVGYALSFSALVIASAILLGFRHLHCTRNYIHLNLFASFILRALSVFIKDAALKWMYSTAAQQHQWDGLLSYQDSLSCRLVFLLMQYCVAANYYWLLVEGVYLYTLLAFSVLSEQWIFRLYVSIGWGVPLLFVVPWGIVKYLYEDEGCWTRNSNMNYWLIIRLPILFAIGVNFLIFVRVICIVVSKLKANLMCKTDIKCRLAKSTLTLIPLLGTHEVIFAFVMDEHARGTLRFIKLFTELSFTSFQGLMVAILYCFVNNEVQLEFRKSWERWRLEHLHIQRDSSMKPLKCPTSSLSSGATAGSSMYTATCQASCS

For `CCc1cc(OCCCCn2cc(COCCOCCOCCOCCNC(=O)CCC(=O)N3Cc4ccccc4C#Cc4ccccc43)nn2)ccc1-c1ccc(C[C@H](NC(=O)[C@H](CC(=O)O)NC(=O)[C@H](CO)NC(=O)[C@@H](NC(=O)[C@](C)(Cc2ccccc2F)NC(=O)[C@@H](NC(=O)CNC(=O)[C@H](Cc2nn[nH]n2)NC(=O)C(C)(C)C(=O)NCCc2cnc[nH]2)[C@@H](C)O)[C@@H](C)O)C(=O)N[C@@H](CCCc2cc(C)cc(C)c2)C(N)=O)cc1` [LP8, DIBAC-suc-PEG4-triazole-P8], the EC50 in assay [1] (setting [4]) came out at 412 pM.
Still for that read-out and setting: in the case of `CCc1cc(OCCCCNC(=O)CNC(=O)CNC(=O)CNC(=O)CNC(=O)[C@H](CO)NC(=O)CCC(=O)N2Cc3ccccc3C#Cc3ccccc32)ccc1-c1ccc(C[C@H](NC(=O)[C@H](CC(=O)O)NC(=O)[C@H](CO)NC(=O)[C@@H](NC(=O)[C@](C)(Cc2ccccc2F)NC(=O)[C@@H](NC(=O)CNC(=O)[C@H](Cc2nn[nH]n2)NC(=O)C(C)(C)C(=O)NCCc2cnc[nH]2)[C@@H](C)O)[C@@H](C)O)C(=O)N[C@@H](CCCc2cc(C)cc(C)c2)C(=O)Nc2ccccc2)cc1` [LP16, DIBAC-suc-SG4-P23] it was 1040 pM.
For the compound `CCc1cc(OCCCCNC(=O)[C@@H](CO)NC(=O)CNC(=O)CNC(=O)CNC(=O)CNC(=O)COC2C#CCCCCC2)ccc1-c1ccc(C[C@H](NC(=O)[C@H](CC(=O)O)NC(=O)[C@H](CO)NC(=O)[C@@H](NC(=O)C(C)(Cc2ccccc2F)NC(=O)[C@@H](NC(=O)CNC(=O)[C@H](Cc2nn[nH]n2)NC(=O)C(C)(C)C(=O)NCCc2cnc[nH]2)[C@@H](C)O)[C@@H](C)O)C(=O)N[C@@H](CCCc2cc(C)cc(C)c2)C(N)=O)cc1` (stereo partly drawn) [LP19, COT-G4-(R)Ser-P9], in assay [1] (setting [4]), the EC50 was determined as 558 pM.
Same read-out and setting: as for `CCc1cc(OCCCCNC(=O)CNC(=O)CNC(=O)CNC(=O)CNC(=O)[C@H](CO[C@@H]2OC(CO)[C@@H](O)C(O)C2O)NC(=O)CCC(=O)N2Cc3ccccc3C#Cc3ccccc32)ccc1-c1ccc(C[C@H](NC(=O)[C@H](CC(=O)O)NC(=O)[C@H](CO)NC(=O)[C@@H](NC(=O)[C@](C)(Cc2ccccc2F)NC(=O)[C@@H](NC(=O)CNC(=O)[C@H](Cc2nn[nH]n2)NC(=O)C(C)(C)C(=O)NCCc2cnc[nH]2)[C@@H](C)O)[C@@H](C)O)C(=O)N[C@@H](CCCc2cc(C)cc(C)c2)C(N)=O)cc1` (stereo partly drawn) [LP20, DIBAC-suc-(glucose) SG4-P9], the figure is 314 pM.
Consider `CCc1cc(OCCCCNC(=O)CCOCCOCCOCCOCCOCCOCCOCCOCCOCCOCCOCCOCCOCCOCCOCCOCCOCCOCCOCCOCCOCCOCCOCCOCCNC(=O)CCC(=O)N2Cc3ccccc3-c3nnn(CC4OC5OC6C(CO)OC(OC7C(CO)OC(OC8C(CO)OC(OC9C(CO)OC(OC%10C(CO)OC(OC4C(O)C5O)C(O)C%10O)C(O)C9O)C(O)C8O)C(O)C7O)C(O)C6O)c3-c3ccccc32)ccc1-c1ccc(C[C@H](NC(=O)[C@H](CC(=O)O)NC(=O)[C@H](CO)NC(=O)[C@@H](NC(=O)[C@](C)(Cc2ccccc2F)NC(=O)[C@@H](NC(=O)CNC(=O)[C@H](Cc2nn[nH]n2)NC(=O)C(C)(C)C(=O)NCCc2cnc[nH]2)[C@@H](C)O)[C@@H](C)O)C(=O)N[C@@H](CCCc2cc(C)cc(C)c2)C(N)=O)cc1` (stereo partly drawn) [LP22, cyclo-dex-trin-triazole-DIBAC-suc-PEG24-P9], for which, in assay [1], the EC50 was determined as 2710 pM.
Regarding `CCc1cc(OCCCCN)ccc1-c1ccc(C[C@H](NC(=O)[C@H](CC(=O)O)NC(=O)[C@H](CO)NC(=O)[C@@H](NC(=O)[C@](C)(Cc2ccccc2F)NC(=O)[C@@H](NC(=O)CNC(=O)[C@@H](N)CCC(N)=O)[C@@H](C)O)[C@@H](C)O)C(=O)N[C@@H](CCCc2cc(C)cc(C)c2)C(N)=O)cc1` [M2913], in assay [2], the S/N worked out at 3.2, the “Relative Potency (% M2361 EC50)” value turned out to be 0.0% and the “Relative Signal:Noise (% M2361)” value was determined as 4.9%. Besides, in assay [3], the S/N was determined as 1.1 and the EC50 is > 200000 pM.
For `CCc1cc(OCCCCNC(=O)[C@H](CO)NC(=O)CNC(=O)CNC(=O)CNC(=O)CNC(=O)C(CO)NC(=O)CNC(=O)CNC(=O)CNC(=O)CN)ccc1-c1ccc(C[C@H](NC(=O)[C@H](CC(=O)O)NC(=O)[C@H](CO)NC(=O)[C@@H](NC(=O)[C@](C)(Cc2ccccc2F)NC(=O)[C@@H](NC(=O)CNC(=O)[C@H](Cc2nn[nH]n2)NC(=O)C(C)(C)C(=O)NCCc2cnc[nH]2)[C@@H](C)O)[C@@H](C)O)C(=O)N[C@@H](CCCc2cc(C)cc(C)c2)C(N)=O)cc1` (stereo partly drawn) [M2945], in assay [2], the S/N was determined as 71.8, the EC50 amounted to 25.5 pM, the “Relative Potency (% M2361 EC50)” value was determined as 31.4% and the “Relative Signal:Noise (% M2361)” value worked out at 99.9%. Also, in assay [3], the S/N is recorded as 1.4 and the EC50 was > 20000 pM.
With `CCc1cc(OCCCCN)ccc1-c1ccc(C[C@H](NC(=O)[C@H](CC(=O)O)NC(=O)[C@H](CO)NC(=O)[C@@H](NC(=O)[C@](C)(Cc2ccccc2F)NC(=O)[C@@H](NC(=O)CNC(=O)[C@H](Cc2nn[nH]n2)NC(=O)[C@]2(C)CCN(CCc3cnc[nH]3)C2=O)[C@@H](C)O)[C@@H](C)O)C(=O)N[C@@H](CCCc2cc(C)cc(C)c2)C(N)=O)cc1` [P14-S], in assay [1] (setting [4]), the EC50 turned out to be 727 pM.
For `CCc1cc(OCCCCN)ccc1-c1ccc(C[C@H](NC(=O)[C@H](CC(=O)O)NC(=O)[C@H](CO)NC(=O)[C@@H](NC(=O)[C@](C)(Cc2ccccc2F)NC(=O)[C@@H](NC(=O)CNC(=O)[C@H](Cc2nn[nH]n2)NC(=O)[C@@]2(C)CCN(CCc3cnc[nH]3)C2=O)[C@@H](C)O)[C@@H](C)O)C(=O)N[C@@H](CCCc2cc(C)cc(C)c2)C(N)=O)cc1` [P15], in assay [2], the S/N came to 67.8, the “Relative Potency (% M2361 EC50)” value amounted to 40.3% and the “Relative Signal:Noise (% M2361)” value was 103.1%. In assay [3], the S/N amounted to 1.1 and the EC50 is > 200000 pM.
As to `CCc1cc(OCCCCN)ccc1-c1ccc(C[C@H](NC(=O)[C@H](CC(=O)O)NC(=O)[C@H](CO)NC(=O)[C@@H](NC(=O)[C@](C)(Cc2ccccc2F)NC(=O)[C@@H](NC(=O)CNC(=O)[C@H](Cc2nn[nH]n2)NC(=O)[C@H]2CCN(CCc3cnc[nH]3)C2)[C@@H](C)O)[C@@H](C)O)C(=O)N[C@@H](CCCc2cc(C)cc(C)c2)C(N)=O)cc1` [P16-S] (X8-[Ala(1H-tetrazol-5-yl)]GT[αMePhe(2-F)]TSD[Bip(2'-Et,4'-O(CH2)4NH2)][Nva(5-(3,5-Me2Ph))]-NH2), the EC50 in assay [1] (setting [4]) was 544 pM.
Regarding `CCc1cc(OCCCCN)ccc1-c1ccc(C[C@H](NC(=O)[C@H](CC(=O)O)NC(=O)[C@H](CO)NC(=O)[C@@H](NC(=O)[C@](C)(Cc2ccccc2F)NC(=O)[C@@H](NC(=O)CNC(=O)[C@H](Cc2nn[nH]n2)NC(=O)[C@H]2CCN(CCc3cnc[nH]3)C2)[C@@H](C)O)[C@@H](C)O)C(=O)N[C@@H](CCCc2cc(C)cc(C)c2)C(N)=O)cc1` [P16] (X8-[Ala(1H-tetrazol-5-yl)]GT[αMePhe(2-F)]TSD[Bip(2'-Et,4'-O(CH2)4NH2)][Nva(5-(3,5-Me2Ph))]-NH2), in assay [2], the S/N is given as 55.1, the EC50 stood at 217 pM, the “Relative Potency (% M2361 EC50)” value is reported as 2.5% and the “Relative Signal:Noise (% M2361)” value is reported as 83.8%. Moreover, in assay [3], the S/N turned out to be 1.1 and the EC50 is > 200000 pM.
As for `CCc1cc(OCCCCN)ccc1-c1ccc(C[C@H](NC(=O)[C@H](CC(=O)O)NC(=O)[C@H](CO)NC(=O)[C@@H](NC(=O)[C@](C)(Cc2ccccc2F)NC(=O)[C@@H](NC(=O)CNC(=O)[C@H](Cc2nn[nH]n2)NC(=O)[C@@H]2CCN(CCc3cnc[nH]3)C2)[C@@H](C)O)[C@@H](C)O)C(=O)N[C@@H](CCCc2cc(C)cc(C)c2)C(N)=O)cc1` [P17-R] (X9-[Ala(1H-tetrazol-5-yl)]GT[αMePhe(2-F)]TSD[Bip(2'-Et,4'-O(CH2)4NH2)][Nva(5-(3,5-Me2Ph))]-NH2), the EC50 in assay [1] (setting [4]) came out at 11200 pM.
